{"source": "patent US11135214B2", "about": "“Methods for enhancing the bio availability and exposure of a voltage-gated potassium channel opener” (priority 2018, dated 2021)", "key": {"[1]": {"assay": "Open-label randomized two-period fed/fasted crossover study, plasma PK", "conditions": "human, in vivo", "excerpt": "The study consisted of two Treatment Periods, Period 1 and Period 2. Each Treatment Period consisted of 7 days, with the dosing of Compound A occurring on Day 1. The two treatment periods were separated by a washout period of 10 days. The subjects were randomized into two groups. During Treatment Period 1, one group received an oral dose of Compound A while fasted and the other group received an oral dose of Compound A when fed. The group which fasted in Treatment Period 1 was fed in Treatment Period 2 and vice versa.\nOn Day 1 of each Treatment Period, each subject orally received 20 mg of Compound A (4 capsules with 5 mg of Compound A in each capsule).\nDuring the fed period, following an overnight fast of at least 10 hours, a standard high fat, high calorie breakfast was given as per FDA guidance; the breakfast was given 30 minutes prior to the scheduled dosing time, and was completed 10 minutes before dosing. A representative breakfast included 2 slices of buttered toast, 2 fried eggs, 2 strips of bacon, 4 oz. of hash brown potatoes, and 8 oz. of whole milk.\nDuring the fasted period, dosing occurred after an overnight fast of at least 10 hours. No food was allowed for 4 hours post-dose in either the fed or fasted period. Water was allowed as desired except for one hour before and after dosing.\nFor all subjects, blood samples for the determination of Compound A plasma concentration were collected at dosing (0.0 hours (time zero)) and at 0.5, 1.0, 1.5, 2.0, 3.0, 4.0, 6.0, 8.0, 12.0, 24.0, 32.0, 48.0 and 144.0 hours post-dose."}, "[2]": {"assay": "First-in-human SAD and MAD study, safety and tolerability", "assay_type": "in vivo", "conditions": "for Cmax: human, plasma, oral, read-out: individual Cmax levels up to which well tolerated", "experimental": "A first-in-human study was conducted to evaluate the safety, tolerability and pharmacokinetics (PK) of single and multiple ascending doses (SAD and MAD) of oral Compound A.\nIn the SAD Phase, 32 healthy volunteers were randomized (3:1) to Compound A (5, 15, 20, 25 or 30 mg) or placebo. The study featured an adaptive design. A crossover food effect cohort (N=10) was also completed with single doses of 20 mg. A sub-set of 8 male subjects were also assessed with Transcranial Magnetic Stimulation (TMS) for effects on cortical excitability (see Examples 4 and 5).\nRepeat doses of Compound A (15 mg QD) were evaluated in a fasted and fed state over 7 and 10 days, respectively. Repeat doses of Compound A (25 mg QD) were also evaluated in a fed state over 10 days.\nCompound A was formulated as an immediate release capsule. Serial plasma PK samples were collected for all cohorts. Safety evaluations throughout the study included adverse event (AE) monitoring, clinical laboratory tests, vital signs, ECGs, physical examinations and Columbia-Suicide Severity Rating Scale."}, "[3]": {"assay": "Transcranial magnetic stimulation pilot study (RMT/AMT, TEPs, rEEG)", "conditions": "male, human, in vivo", "experimental": "(§1) In a pilot study TMS was used to non-invasively determine whether Compound A (10, 15 and 20 mg) impacts cortical excitability. The TMS pilot study was designed to inform sample size calculation for a larger randomized, double-blind and placebo-controlled TMS cross-over study (N=20) with Compound A.\n(§2) Eight healthy, right-handed male subjects (aged 21-35 years, 62.4-95.4 kg) from a First-in-Human Phase 1 study were enrolled in this open-label TMS pilot study. RMT, TEPs and EEGs were recorded prior to Compound A, 2 and 4 h post dose. Spectral analysis was performed on resting EEGs. Single-subject level analyses were performed via multiple independent sample t-tests to determine effects of Compound A on TEP amplitudes. Multiple comparisons were accounted for using clusterbased permutation analysis."}, "cortical excitability [4]": {"test_system": "cortical excitability", "assay": "Transcranial magnetic stimulation pilot study (RMT/AMT, TEPs, rEEG)", "experimental": "as §1, §2"}, "cortical excitability [5]": {"test_system": "cortical excitability", "assay": "TMS crossover study, TMS-evoked EEG potentials (TEPs)", "assay_type": "in vivo, human", "conditions": "for N45 vs pre-dose: 4 h (p=0.03)", "experimental": "All 20 subjects underwent TMS-EMG and TMS-EEG sessions prior to dosing on Days 1 and 7 and at 2 and 4 h after dosing. […] For the 6 h timepoint, RMT was performed for 16 subjects, and AMT, EEG resting state, and TMS-EEG was performed for 8 subjects.\nCompound A-induced modulation of PD markers was evaluated as an effect of time (comparisons of 2, 4, and 6 h post-dose vs. pre-dose) and of concentration (using the post-dose measure taken during highest drug exposure vs. baseline).\nTMS-evoked EEG potentials (TEPs) were calculated by averaging artefact-free EEG trials in the different experimental conditions (Table 17).\nThe following TEP components (P=positive, N=negative) in accordance with the literature were studied, value in parenthesis is the time of interest (TOI): P25 (15-35 ms), N45 (35-70 ms), P70 (70-80 ms), N100 (80-145 ms), and P180 (145-230 ms). TOIs were chosen on the basis of the grand-averaged TEPs and kept identical during the analysis of pre-dose and post-dose measurements and across conditions. To analyze drug-induced modulation of TEPs, we selected a region of interest (ROI) that was composed of 27 channels over and around the stimulation site (left M1) and the corresponding contralateral site (‘FC1’, ‘FC3’, ‘FC5’, ‘C1’, ‘C3’, ‘C5’, ‘CP1’, ‘CP3’, ‘CP5’, ‘P1’, ‘P3’, ‘P5’, ‘Cz’, ‘CPz’, ‘Pz’, ‘FC2’, ‘FC4’, ‘FC6’, ‘C2’, ‘C4’, ‘C6’, ‘CP2’, ‘CP4’, ‘CP6’, ‘P2’, ‘P4’, ‘P6’).\nTo analyze significance of TEP amplitude modulations induced by Compound A, multiple dependent sample t-test comparisons (post-dose vs. pre-dose) were applied for each TOI in all the electrodes within the indicated ROI. To correct for multiple comparisons (i.e., electrodes, timepoints), we conducted a non-parametric cluster-based permutation analysis as implemented in FieldTrip."}}}
{"smiles": "Cc1cc(N2CCc3cc(F)ccc3C2)cc(C)c1NC(=O)CC(C)(C)C", "note": "[Compound A, N-[4-(6-fluoro-3,4-dihydro-1H-isoquinolin-2-yl)-2,6-dimethylphenyl]-3,3-dimethylbutanamide]", "values": [{"measurement": "concentration at 3 h", "setting": "[1]; both sexes, fed, 20 mg oral, 3.0 h, individual subjects, read-out: Compound A Concentration", "result": 104, "unit": "ng/mL"}, {"measurement": "Cmax", "setting": "[1]; both sexes, fed, 20 mg oral, individual subjects", "result": 104, "unit": "ng/mL"}, {"measurement": "bioavailability and exposure, fed compared to fasted conditions", "setting": "[1]; po, 20 mg", "result": "significantly enhanced"}, {"measurement": "Cmax", "setting": "[2]; multiple doses", "result": "≤ 107", "unit": "ng/mL"}, {"measurement": "Cmax", "setting": "[2]; single doses", "result": "≤ 104", "unit": "ng/mL"}, {"measurement": "SAEs, deaths, ECG or laboratory findings", "setting": "[2]; single and multiple doses", "result": "no SAEs, deaths, or clinically significant ECG or laboratory findings"}, {"measurement": "severity of the majority of AEs", "setting": "[2]; single and multiple doses, e.g. dizziness, sedation", "result": "mild or moderate"}, {"measurement": "safety and tolerability", "setting": "[2]; single doses of up to 30 mg and multiple doses of 25 mg QD", "result": "safe and well-tolerated"}, {"measurement": "concentration at 4 h", "setting": "[3]; 10 mg", "result": 23.1, "unit": "ng/mL"}, {"measurement": "concentration at 4 h", "setting": "[3]; 15 mg", "result": 36.3, "unit": "ng/mL"}, {"measurement": "concentration at 4 h", "setting": "[3]; 20 mg", "result": "50 ± 10", "unit": "ng/mL"}, {"measurement": "TEP modulation", "setting": "cortical excitability [4]; 10 mg (N=2) and 15 mg (N=3)", "result": "did not show significant and robust TEP modulation"}, {"measurement": "AMT", "setting": "cortical excitability [4]; 10 mg, N=2", "result": "did not change AMT"}, {"measurement": "SICI assessed with TMS/EMG", "setting": "cortical excitability [4]; 10, 15, 20 mg", "result": "but not SICI"}, {"measurement": "motor thresholds assessed with TMS/EMG", "setting": "cortical excitability [4]; 10, 15, 20 mg, 2 and 4 hours post-drug", "result": "increased"}, {"measurement": "RMT increase from baseline", "setting": "cortical excitability [4]; 4 h post 20 mg", "result": "4.3±0.6", "unit": "%"}, {"measurement": "theta power in rEEG", "setting": "cortical excitability [4]; 4 h post 20 mg", "result": "increased"}, {"measurement": "suppression of TEP amplitude, peak at 180 ms (P180)", "setting": "cortical excitability [4]; 4 h post 20 mg, p<0.01, N=3", "result": "1.92±0.03", "unit": "μV"}, {"measurement": "Modulation of TEPs, N45", "setting": "cortical excitability [5]; 2 h after dosing vs pre-dose", "result": "Not significant"}, {"measurement": "Modulation of TEPs, P180", "setting": "cortical excitability [5]; 2 h after dosing vs pre-dose", "result": "Not significant"}, {"measurement": "N15-P25 complex vs pre-dose", "setting": "cortical excitability [5]; all available subjects, 2 h (p=0.006) and 4 h (p=0.01)", "result": "decreased"}, {"measurement": "P180 vs pre-dose", "setting": "cortical excitability [5]; all available subjects, 4 h (p=0.02)", "result": "significantly suppressed"}, {"measurement": "N45 vs pre-dose", "setting": "cortical excitability [5]; all available subjects", "result": "significantly suppressed"}, {"measurement": "TEP amplitude P180", "setting": "cortical excitability [5]; concentration analysis N=16, highest plasma concentration, printed 2.2 vs 3.0 μV, p<0.01", "result": 2.2, "unit": "μV"}, {"measurement": "peak-to-peak amplitude of early complex N15-P25 (15 to 35 ms)", "setting": "cortical excitability [5]; concentration analysis N=16, highest plasma concentration, printed 4.5 vs 6.0 μV, p<0.05", "result": 4.5, "unit": "μV"}, {"measurement": "TEP amplitude N45", "setting": "cortical excitability [5]; concentration analysis N=16, highest plasma concentration, printed −2.3 vs −3.0 μV, p<0.01", "result": "−2.3", "unit": "μV"}, {"measurement": "N15-P25 complex vs pre-dose", "setting": "cortical excitability [5]; subjects with drug exposure, 2 h (p=0.008) and 4 h (p=0.02)", "result": "decreased"}, {"measurement": "P180 vs pre-dose", "setting": "cortical excitability [5]; subjects with drug exposure, 4 h (p=0.004)", "result": "significantly suppressed"}, {"measurement": "N45 vs pre-dose", "setting": "cortical excitability [5]; subjects with drug exposure", "result": "significantly suppressed"}, {"measurement": "N100 vs pre-dose", "setting": "cortical excitability [5]; subjects with drug exposure, 4 h (p=0.04)", "result": "significantly suppressed"}]}
